Consider 21 compounds from patent US20240018120A1, “MAGL INHIBITORS” (H. LUNDBECK A/S, priority 2020, published 2024).

Assay [1] addresses T1, MAGL (Homo sapiens, UniProt Q99685).
T1 sequence (Q99685 1-303): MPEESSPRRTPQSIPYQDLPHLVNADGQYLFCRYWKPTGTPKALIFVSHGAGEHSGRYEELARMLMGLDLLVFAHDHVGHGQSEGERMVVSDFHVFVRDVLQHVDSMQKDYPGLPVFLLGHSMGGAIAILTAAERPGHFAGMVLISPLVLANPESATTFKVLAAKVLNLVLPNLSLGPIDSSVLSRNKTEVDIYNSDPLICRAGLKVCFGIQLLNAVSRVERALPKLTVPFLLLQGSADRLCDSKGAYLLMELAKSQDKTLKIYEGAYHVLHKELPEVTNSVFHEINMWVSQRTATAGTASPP
The assay can be described thus: In vitro competitive activity-based protein profiling, PC3 human cell membrane proteomes. In kind it is biochemical. Particulars: human PC3 membrane proteome; for inhibition at 1 µM: read-out: MAGL % inh. 1 μM (human PC3). Details: endogenous in cells; host or cells: PC3 human cells (membrane proteome). The protocol:
PC3 human cell membrane proteomes (50 μL, 2.0 mg/mL total protein concentration) were preincubated with varying concentrations of inhibitors at 37° C. After 30 min, the ABPP probe JW912-Bodipy (1.0 μL, 50 μM in DMSO) was added and the mixture was incubated for 30 min at room temperature. Reactions were quenched with SDS loading buffer (15 μL-4×) and run on SDS-PAGE. Following gel imaging, serine hydrolase activity was determined by measuring fluorescent intensity of gel bands corresponding to MAGL using ImageJ 1.43u software. Intensities were converted to percent enzyme activity by normalizing to DMSO controls. IC50 values were determined by fitting percent enzyme activities to a non-linear regression, 4-parameter, sigmoidal dose response function in Prism GraphPad.

In assay [2] the target is T1, MAGL. Kind of assay: In vitro competitive substrate hydrolysis enzyme activity assay (pNPA), HEK293 cell lysates. The assay is classed as biochemical. Also on record: expressed in transfected cells; host or cells: HEK293. The conditions noted are these: HEK293 lysate. The protocol: HEK293 cell lysates expressing recombinant human MAGL enzyme and 4-nitrophenyl acetate (pNPA) substrate were diluted separately in 50 mM HEPES (pH 7.0) containing 200 mM KCl and 1 mM EDTA. Lysates (50 μL, ˜1.2 μg total protein) were preincubated with varying concentrations of inhibitors at 25° C. After 30 min, 2×pNPA substrate (50 μL, 2.5 mM) was added and the rate of substrate turnover was monitored by measuring the increase in absorbance at wavelength 405 nm for 20 minutes at 25° C. using a Biotek Neo2 plate reader. The mean velocity was converted to percent enzyme activity following background subtraction and normalization to DMSO controls. IC50 values were determined by fitting percent enzyme activities to a non-linear regression, 4-parameter, sigmoidal dose response function in Prism GraphPad.

SMILES strings stand for the structures.

A word on the IC50: it is the concentration that gives 50% inhibition. A higher IC50 goes with weaker potency. On to `O=C(Nc1cncnc1)C1CC12CCN(C(=O)OC(C(F)(F)F)C(F)(F)F)CC2` (single isomer, unassigned) [Example 97, 1,1,1,3,3,3-hexafluoropropan-2-yl (R or S)-1-(pyrimidin-5-ylcarbamoyl)-6-azaspiro[2.5]octane-6-carboxylate], for which the IC50 at MAGL [1] is 0.2 µM; at MAGL [2], 1.38 µM. On the same counts, the results for `O=C(OC(C(F)(F)F)C(F)(F)F)N1CCC2(CC1)CC2C(=O)N1CCc2ncncc2C1` (single isomer, unassigned) [Example 60, 1,1,1,3,3,3-hexafluoropropan-2-yl (R or S)-1-(5,6,7,8-tetrahydropyrido[4,3-d]pyrimidine-6-carbonyl)-6-azaspiro[2.5]octane-6-carboxylate] are 0.036 µM and 0.0854 µM. Consider `O=C(NCc1cccnc1)C1CC12CCN(C(=O)OC(C(F)(F)F)C(F)(F)F)CC2` (single isomer, unassigned) [Example 87, 1,1,1,3,3,3-hexafluoropropan-2-yl (R or S)-1-((pyridin-3-ylmethyl)carbamoyl)-6-azaspiro[2.5]octane-6-carboxylate], for which, on MAGL [1], the inhibition at 1 µM was determined as 100% and the IC50 is 0.2 µM. The compound further registered a half-inhibitory concentration (IC50) on MAGL [2] of 0.463 µM. In turn, `O=C(Nc1ccc(C(F)(F)F)nc1)C1CC12CCN(C(=O)OC(C(F)(F)F)C(F)(F)F)CC2` (single isomer, unassigned) [Example 79, 1,1,1,3,3,3-hexafluoropropan-2-yl (R or S)-1-((6-(trifluoromethyl)pyridin-3-yl)carbamoyl)-6-azaspiro[2.5]octane-6-carboxylate] displayed an IC50 on MAGL [2] of 0.851 µM. The same measure, in the same setting: for `Cc1ccc(NC(=O)C2CC23CCN(C(=O)OC(C(F)(F)F)C(F)(F)F)CC3)cn1` (single isomer, unassigned) [Example 82, 1,1,1,3,3,3-hexafluoropropan-2-yl (R or S)-1-((6-methylpyridin-3-yl)carbamoyl)-6-azaspiro[2.5]octane-6-carboxylate] the value was 0.118 µM.

With `CN(C(=O)C1CC12CCN(C(=O)OC(C(F)(F)F)C(F)(F)F)CC2)c1cccnc1` (single isomer, unassigned) [Example 43, 1,1,1,3,3,3-hexafluoropropan-2-yl (R or S)-1-(methyl(pyridin-3-yl)carbamoyl)-6-azaspiro[2.5]octane-6-carboxylate], the concentration for half-maximal inhibition (IC50) at MAGL [1] came to 0.04 µM; on MAGL [2], 0.244 µM. Consider `Cc1ccc(NC(=O)C2CC23CCN(C(=O)OC(C(F)(F)F)C(F)(F)F)CC3)cn1` (single isomer, unassigned) [Example 81, 1,1,1,3,3,3-hexafluoropropan-2-yl (R or S)-1-((6-methylpyridin-3-yl)carbamoyl)-6-azaspiro[2.5]octane-6-carboxylate], for which, at MAGL [1], the inhibition at 1 µM was determined as 100% and the 50% inhibitory concentration (IC50) worked out at 0.00087 µM. Also, on MAGL [2], the IC50 worked out at 0.000864 µM. In the same order, the values of `O=C(Nc1cccnc1C(F)(F)F)C1CC12CCN(C(=O)OC(C(F)(F)F)C(F)(F)F)CC2` (single isomer, unassigned) [Example 84, 1,1,1,3,3,3-hexafluoropropan-2-yl (R or S)-1-((2-(trifluoromethyl)pyridin-3-yl)carbamoyl)-6-azaspiro[2.5]octane-6-carboxylate] are 100%, 0.0089 µM and 0.0101 µM. On the same counts, the results for `O=C(OC(C(F)(F)F)C(F)(F)F)N1CCC2(CC1)CC2C(=O)N1CCn2c(nnc2C2CC2)C1` (racemic) [Example 185, 1,1,1,3,3,3-hexafluoropropan-2-yl (+)1-(3-cyclopropyl-5,6,7,8-tetrahydro-[1,2,4]triazolo[4,3-a]pyrazine-7-carbonyl)-6-azaspiro[2.5]octane-6-carboxylate] are 90%, 0.4 µM and 0.862 µM. `O=C(Nc1cncc(Cl)c1)C1CC12CCN(C(=O)OC(C(F)(F)F)C(F)(F)F)CC2` (single isomer, unassigned) [Example 67, 1,1,1,3,3,3-hexafluoropropan-2-yl (R or S)-1-((5-chloropyridin-3-yl)carbamoyl)-6-azaspiro[2.5]octane-6-carboxylate] showed a half-maximal inhibitory concentration (IC50) on MAGL [2] of 0.0485 µM. `O=C(OC(C(F)(F)F)C(F)(F)F)N1CCC2(CC1)CC2C(=O)N1CCc2nc(C3CC3)ncc2C1` (single isomer, unassigned) [Example 64, 1,1,1,3,3,3-hexafluoropropan-2-yl (R or S)-1-(2-cyclopropyl-5,6,7,8-tetrahydropyrido[4,3-d]pyrimidine-6-carbonyl)-6-azaspiro[2.5]octane-6-carboxylate] displayed an IC50 on MAGL [2] of 0.103 µM. Against the preceding compound, the IC50 is about 2.1-fold higher.

Turning to `O=C(NC(=O)C1CC12CCN(C(=O)OC(C(F)(F)F)C(F)(F)F)CC2)c1ccccc1` (single isomer, unassigned) [Example 93, 1,1,1,3,3,3-hexafluoropropan-2-yl (R or S)-1-(benzoylcarbamoyl)-6-azaspiro[2.5]octane-6-carboxylate], the inhibition at 1 µM on MAGL [1] turned out to be 100%. This compound displayed an IC50 at MAGL [2] of 0.00284 µM. `O=C(Nc1ccccn1)C1CC12CCN(C(=O)OC(C(F)(F)F)C(F)(F)F)CC2` (single isomer, unassigned) [Example 49, 1,1,1,3,3,3-hexafluoropropan-2-yl (R or S)-1-(pyridin-2-ylcarbamoyl)-6-azaspiro[2.5]octane-6-carboxylate] yielded a half-maximal inhibitory concentration (IC50) on MAGL [2] of 0.003 µM. Compound `O=C(Nc1cccc(C(F)(F)F)n1)C1CC12CCN(C(=O)OC(C(F)(F)F)C(F)(F)F)CC2` (single isomer, unassigned) [Example 73, 1,1,1,3,3,3-hexafluoropropan-2-yl (R or S)-1-((6-(trifluoromethyl)pyridin-2-yl)carbamoyl)-6-azaspiro[2.5]octane-6-carboxylate] showed a concentration for half-maximal inhibition (IC50) on MAGL [2] of 0.0003 µM. Same read-out and setting: for `Cc1ncccc1NC(=O)C1CC12CCN(C(=O)OC(C(F)(F)F)C(F)(F)F)CC2` (single isomer, unassigned) [Example 70, 1,1,1,3,3,3-hexafluoropropan-2-yl (R or S)-1-((2-methylpyridin-3-yl)carbamoyl)-6-azaspiro[2.5]octane-6-carboxylate] the value was 0.985 µM; for `Cc1ncccc1NC(=O)C1CC12CCN(C(=O)OC(C(F)(F)F)C(F)(F)F)CC2` (single isomer, unassigned) [Example 69, 1,1,1,3,3,3-hexafluoropropan-2-yl (R or S)-1-((2-methylpyridin-3-yl)carbamoyl)-6-azaspiro[2.5]octane-6-carboxylate], 0.0136 µM; for `O=C(OC(C(F)(F)F)C(F)(F)F)N1CCC2(CC1)CC2C(=O)N1CCn2cc(C(F)(F)F)nc2C1` (single isomer, unassigned) [Example 52, 1,1,1,3,3,3-hexafluoropropan-2-yl (R or S)-1-(2-(trifluoromethyl)-5,6,7,8-tetrahydroimidazo[1,2-a]pyrazine-7-carbonyl)-6-azaspiro[2.5]octane-6-carboxylate], 0.155 µM. Still for that read-out and setting: for `O=C(Nc1cnc(C(F)(F)F)nc1)C1CC12CCN(C(=O)OC(C(F)(F)F)C(F)(F)F)CC2` (single isomer, unassigned) [Example 100, 1,1,1,3,3,3-hexafluoropropan-2-yl (R or S)-1-((2-(trifluoromethyl)pyrimidin-5-yl)carbamoyl)-6-azaspiro[2.5]octane-6-carboxylate] the value was 0.736 µM; for `O=C(OC(C(F)(F)F)C(F)(F)F)N1CCC2(CC1)CC2C(=O)N1CCc2ncncc2C1` (single isomer, unassigned) [Example 61, 1,1,1,3,3,3-hexafluoropropan-2-yl (R or S)-1-(5,6,7,8-tetrahydropyrido[4,3-d]pyrimidine-6-carbonyl)-6-azaspiro[2.5]octane-6-carboxylate], 0.684 µM; for `O=C(Nc1cnccn1)C1CC12CCN(C(=O)OC(C(F)(F)F)C(F)(F)F)CC2` (single isomer, unassigned) [Example 55, 1,1,1,3,3,3-hexafluoropropan-2-yl (R or S)-1-(pyrazin-2-ylcarbamoyl)-6-azaspiro[2.5]octane-6-carboxylate], 0.028 µM. At MAGL [2], `CN(C(=O)C1CC12CCN(C(=O)OC(C(F)(F)F)C(F)(F)F)CC2)c1ccccn1` (single isomer, unassigned) [Example 46, 1,1,1,3,3,3-hexafluoropropan-2-yl (R or S)-1-(methyl(pyridin-2-yl)carbamoyl)-6-azaspiro[2.5]octane-6-carboxylate] came in with a 50% inhibitory concentration (IC50) of 0.133 µM. This IC50 lies about 4.8-fold higher than the previous one.
